Results published in US9388166B2, “6-aminoindole derivatives as TRP channel antagonists” (Hoffmann-La Roche Inc., priority 2012, dated 2016).

biological target: T1, hTRPA1 (Homo sapiens, UniProt O75762); assay: Dose response calcium flux (FLIPR) assay, ChanTest hTRPA1-CHO stably transfected cell line, cinnamaldehyde agonist; type: cell-based; details: CHO-K1 Tet-On hTRPA1 Clone 20 cells, 30 min compound preincubation, cinnamaldehyde final 100 uM
T1 construct: host or cells: CHO-K1 Tet-On, clone 20, expression induced with tetracycline/doxycycline
T1 sequence (O75762 whole entry): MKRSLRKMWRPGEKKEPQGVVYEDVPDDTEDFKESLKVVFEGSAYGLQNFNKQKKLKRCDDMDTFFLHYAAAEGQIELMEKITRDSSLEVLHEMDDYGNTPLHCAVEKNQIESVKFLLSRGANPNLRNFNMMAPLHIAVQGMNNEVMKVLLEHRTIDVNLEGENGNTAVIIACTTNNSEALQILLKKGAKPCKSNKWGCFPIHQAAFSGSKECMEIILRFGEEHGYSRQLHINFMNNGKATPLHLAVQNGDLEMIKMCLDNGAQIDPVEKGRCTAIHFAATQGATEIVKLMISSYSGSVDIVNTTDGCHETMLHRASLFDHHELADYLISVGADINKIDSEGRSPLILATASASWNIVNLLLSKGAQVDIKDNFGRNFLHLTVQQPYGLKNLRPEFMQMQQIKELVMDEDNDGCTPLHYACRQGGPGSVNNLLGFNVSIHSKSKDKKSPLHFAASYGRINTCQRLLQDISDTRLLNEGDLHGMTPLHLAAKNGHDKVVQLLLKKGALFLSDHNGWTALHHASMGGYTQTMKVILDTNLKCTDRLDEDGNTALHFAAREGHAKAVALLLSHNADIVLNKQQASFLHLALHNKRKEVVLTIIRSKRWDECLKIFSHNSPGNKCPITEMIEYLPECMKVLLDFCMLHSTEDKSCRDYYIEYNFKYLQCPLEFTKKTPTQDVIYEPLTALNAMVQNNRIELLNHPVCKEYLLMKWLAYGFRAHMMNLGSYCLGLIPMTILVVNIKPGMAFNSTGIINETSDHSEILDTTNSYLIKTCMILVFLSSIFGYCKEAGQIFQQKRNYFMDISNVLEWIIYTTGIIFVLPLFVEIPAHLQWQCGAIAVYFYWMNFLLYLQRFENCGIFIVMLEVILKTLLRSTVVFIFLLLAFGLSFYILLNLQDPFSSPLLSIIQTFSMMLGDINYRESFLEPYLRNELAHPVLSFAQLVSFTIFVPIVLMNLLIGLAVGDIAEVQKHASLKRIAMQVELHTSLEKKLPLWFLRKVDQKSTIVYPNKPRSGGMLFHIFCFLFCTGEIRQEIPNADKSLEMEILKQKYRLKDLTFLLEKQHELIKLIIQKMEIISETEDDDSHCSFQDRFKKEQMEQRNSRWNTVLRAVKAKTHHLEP
Description: Dose Response Assay: ChanTest hTRPA1-CHO Stably Transfected Cell Line
To induce expression, tetracycline was added to blasticidin/zeocin-free media at a final concentration of 1 ug/ml. Experiments were run at 24 h post induction.
Measured cell density and diluted to 2.4×10^5 cells/ml in media containing 1 ug/ml Doxycycline Plate 25 ul/well into 384 well black/clear tissue culture-treated plates.
Replacement Buffer: Hank's Balanced Salt Solution, 20 mM HEPES along with 0.005% BSA and 2× Probenecid
Dye Loading Buffer: Cal-3 NW Calcium dye was prepared by dissolving the contents of one vial with 500 ml Hank's Balanced Salt Solution containing 20 mM HEPES. • Control compounds for CHOK1/TRPA1 cells:
AP-18, stock 10 mM, prepare 3.5× compound dilution in a Compound Buffer (HBSS/20mM HEPES/0.005% BSA)—final concentration 10 uM.
Preparation of Cinnamaldehyde (agonist addition): • FW=132.16 • Specific gravity=1.046 gm/cc • 1.32 gm/1.046 gm/cc=1.26 ml of stock • Add 1.74 ml DMSO=3.3 M stock • Working solution 4.5× (final 100 uM in Compound Buffer: HBSS/20 mM HEPES/0.005% BSA)
Compounds dilutions were prepared from 5 or 10 mM stock (100% DMSO):
Compounds were tested at either 20 μM three folds dilution 11 steps out or 30 μM two folds dilution 11 steps out.
3 μl of diluted compound were transferred into Weidmann 384—well plate in duplicates side-by-side.
Compound plates were resuspended with 100 ul of HBSS/20 mM HEPES/0.005% BSA buffer (Compound Buffer): • column 1A-H: buffer/DMSO (bk) • column 2A-H: AP-18(control antagonist for CHOK1 TRPA1 cells) • column 1I-P: ATP (control for CHOK1 teton cells) • column 2 I-P: 2APB (control antagonist for CHOK1/TRPM8 cells).
Growth media was removed from the cell plates (20 ul) and 20 ul of the Replacement Buffer was added followed by addition of 25 ul of diluted dye. All three steps were performed using a Plate Washer BioTek 407. The plates were then incubated for 30′ at RT.
After incubation, both the cell and compound plates were brought to the FLIPR and 20 ul of the diluted compounds/antagonist/bk were transferred to the cell plates by the FLIPR. Plates were then incubated for 30′ at room temperature. After 30′ incubation, plates were returned to the FLIPR and 20 ul of 4.5× Cinnamaldehyde was added to the cell plates. During the compound addition as well as agonist addition, fluorescence readings were taken simultaneously from all 384 wells of the cell plate every 1.5 seconds. Five readings were taken to establish a stable baseline, then 20 μl of sample was rapidly (30 ul/sec) and simultaneously added to each well of the cell plate. The fluorescence was continuously monitored before, during and after sample/agonist addition for a total elapsed time of 100 seconds (compound addition) and 120 seconds (agonist addition). Responses (increase in peak fluorescence) in each well following agonist addition was determined. The initial fluorescence reading from each well, prior to ligand stimulation, was used a zero baseline value for the data from that well.

SMILES	IC50 [µM]
COc1nccc(I)c1-c1cc2ccc(NC(=O)OC(C)(C)C)cc2[nH]1 [Example 1, [2-(4-Iodo-2-methoxy-pyridin-3-yl)-1H-indol-6-yl]-carbamic acid tert-butyl ester]	4
COc1nccc(I)c1-c1cc2ccc(NC(=O)c3cccc(Cl)c3)cc2[nH]1 [Example 11, 3-Chloro-N-[2-(4-iodo-2-methoxy-pyridin-3-yl)-1H-indol-6-yl]-benzamide]	2.9
COc1nccc(I)c1-c1cc2ccc(N(C)C(=O)C(F)F)cc2[nH]1 [Example 6, 2,2-Difluoro-N-[2-(4-iodo-2-methoxy-pyridin-3-yl)-1H-indol-6-yl]-N-methyl-acetamide]	3.3
COc1cccc(Cl)c1-c1cc2ccc(NC(=O)C(F)(F)F)cc2[nH]1 [Example 10, N-[2-(2-Chloro-6-methoxy-phenyl)-1H-indol-6-yl]-2,2,2-trifluoro-acetamide]	0.75
COc1nccc(Cl)c1-c1cc2ccc(NC(=O)[C@@H]3CCCCN3S(=O)(=O)c3ccc(F)cc3)cc2[nH]1 [Example 13, (S)-1-(4-Fluoro-benzenesulfonyl)-piperidine-2-carboxylic acid[2-(4-chloro-2-methoxy-pyridin-3-yl)-1H-indol-6-yl]amide]	3.5
COc1cccc(Cl)c1-c1cc2ccc(N)cc2[nH]1 [Example 9, 2-(2-Chloro-6-methoxy-phenyl)-1H-indol-6-ylamine]	4.3
COc1cc2cc(-c3c(I)ccnc3OC)[nH]c2cc1N [Example 8, 2-(4-Iodo-2-methoxy-pyridin-3-yl)-5-methoxy-1H-indol-6-ylamine]	0.74
CNc1ccc2cc(-c3c(I)ccnc3OC)[nH]c2c1 [Example 5, [2-(4-Iodo-2-methoxy-pyridin-3-yl)-1H-indol-6-yl]-methyl-amine]	5.5
COc1nccc(Cl)c1-c1cc2ccc(NC(=O)c3cccc(Cl)c3)cc2[nH]1 [Example 12, 3-Chloro-N-[2-(4-chloro-2-methoxy-pyridin-3-yl)-1H-indol-6-yl]-benzamide]	5.6
COc1nccc(I)c1-c1cc2ccc(N(C)C(C)=O)cc2[nH]1 [Example 7, N-[2-(4-Iodo-2-methoxy-pyridin-3-yl)-1H-indol-6-yl]-N-methyl-acetamide]	3.6
COc1nccc(Cl)c1-c1cc2ccc(NC(=O)C(F)(F)F)cc2[nH]1 [Example 4, N-[2-(4-Chloro-2-methoxy-pyridin-3-yl)-1H-indol-6-yl]-2,2,2-trifluoro-acetamide]	0.46
COc1nccc(I)c1-c1cc2ccc(NC(=O)C(F)(F)F)cc2[nH]1 [Example 2, 2,2,2-Trifluoro-N-[2-(4-iodo-2-methoxy-pyridin-3-yl)-1H-indol-6-yl]-acetamide]	0.71
COc1nccc(I)c1-c1cc2ccc(NC(=O)C(F)F)cc2[nH]1 [Example 3, 2,2-Difluoro-N-[2-(4-iodo-2-methoxy-pyridin-3-yl)-1H-indol-6-yl]-acetamide]	4.2
